# From patent publication US20110190267A1, “PRODRUGS OF OPIOIDS AND USES THEREOF” (priority 2010, published 2011)
# Where “and” joins values, the source holds several entries; their conditions need not be identical. Identical values can stand only once.
# Assays:
# [1] = biological target: T1, Acetylcholinesterase (h), human recombinant (HEK-293 cells) (Homo sapiens, UniProt P22303); assay: Human acetylcholine esterase inhibition (Example 31); type: biochemical; conditions: AMTCh 50 μM, 30 min./37° C., photometry; read-out: apparent IC50
# T1 construct: host or cells: HEK-293 cells
# Procedure: The results are expressed as a percent of control specific activity ((measured specific activity/control specific activity)×100) obtained in the presence of the test compounds.
# The IC50 values (concentration causing a half-maximal inhibition of control specific activity), and Hill coefficients (nh) were determined by non-linear regression analysis of the inhibition curves generated with mean replicate values using hill equation curve fitting (y=d+[(a−d)/(1+(c/c50)^nh)], where y=specific activity, d=minimum specific activity, a=maximum specific activity, c=compound concentration, C50=IC50, and nh=slope factor).
# This analysis was performed using software developed at Cerep (Hill software) and validated by comparison with data generated by the commercial software Sigmaplot® 4.0 for Windows®.
# [2] = Pharmacokinetics of meptazinol from PABA analogue prodrugs, monkeys (Example 26); type: in vivo; conditions: monkey, plasma, po, 2 mg/kg
# Procedure: (§1) Blood samples were taken at various times after administration and submitted to analysis for the parent drug and prodrug using a validated LC-MS-MS assay. Pharmacokinetic parameters derived from the plasma analytical data were determined using Win Nonlin.
# [3] = Pharmacokinetics of meptazinol from PABA analogue prodrugs, dogs (Example 26); type: in vivo; conditions: dog, plasma, po, 1 mg/kg
# Procedure: as §1
# [4] = Pharmacokinetics of meptazinol or meptazinol PABA carbamate, monkeys (Example 29); type: in vivo, monkey; conditions: for AUC / C0 / t½ / Cmax / T>50%Cmax / Tmax / half-life: meptazinol in plasma; for Fabs: meptazinol; for Vd: read-out: Vss; for half-life: read-out: t½ (converted)
# Description: The results are given in Tables 15 to 18 and shown graphically in FIG. 4.
# [5] = Pharmacokinetics of meptazinol or meptazinol PABA carbamate, dogs (Example 27); type: in vivo, dog; conditions: for Vd: read-out: Vss; for Fabs: meptazinol
# Description: The results are given in Tables 8 to 11 and shown graphically in FIG. 2.
# [6] = Norbury et al. (1983); cited from earlier work
# [7] = Pharmacokinetics of meptazinol or meptazinol PABA carbamate, rats (Example 30); conditions: for Fabs: meptazinol; for clearance: CL; for Vd: Vss
# Procedure: Blood samples were taken at various times after administration and submitted to analysis for the parent drug and pro-drug using a validated LC-MS-MS assay. Pharmacokinetic parameters derived from the plasma analytical data were determined using Win Nonlin.
# [8] = read-out: AUC* (mean ngh/mL), AUC0-t
# [9] = iv meptazinol 1 mg free base equivalents/kg, individual animals
# [10] = oral meptazinol 10 mg free base equivalents/kg, individual animals
# [11] = oral meptazinol 10 mg free base equivalents/kg, mean
# [12] = monkey, plasma, iv, 1 mg/kg, iv meptazinol 1 mg free base equivalents/kg, individual animals
# [13] = monkey, plasma, iv, 1 mg/kg, iv meptazinol 1 mg free base equivalents/kg, mean
# [14] = dog, plasma, iv, 1 mg/kg, iv meptazinol 1 mg free base equivalents/kg, individual animals
# [15] = dog, plasma, iv, 1 mg/kg, iv meptazinol 1 mg free base equivalents/kg, mean
# [16] = meptazinol in plasma, oral meptazinol 1 mg free base equivalents/kg, individual animals
# [17] = meptazinol in plasma, oral meptazinol 1 mg free base equivalents/kg, mean
# [18] = iv meptazinol 1 mg free base equivalents/kg, rats, individual animals
# [19] = meptazinol in plasma, iv meptazinol 1 mg free base equivalents/kg, rats, individual animals
# [20] = meptazinol in plasma, oral meptazinol 1 mg free base equivalents/kg, rats, individual animals
# [21] = rat, plasma, iv, 1 mg/kg, iv meptazinol 1 mg free base equivalents/kg, rats, individual animals
# [22] = rat, plasma, iv, 1 mg/kg, iv meptazinol 1 mg free base equivalents/kg, rats, mean
# T1 sequence (P22303 32-614): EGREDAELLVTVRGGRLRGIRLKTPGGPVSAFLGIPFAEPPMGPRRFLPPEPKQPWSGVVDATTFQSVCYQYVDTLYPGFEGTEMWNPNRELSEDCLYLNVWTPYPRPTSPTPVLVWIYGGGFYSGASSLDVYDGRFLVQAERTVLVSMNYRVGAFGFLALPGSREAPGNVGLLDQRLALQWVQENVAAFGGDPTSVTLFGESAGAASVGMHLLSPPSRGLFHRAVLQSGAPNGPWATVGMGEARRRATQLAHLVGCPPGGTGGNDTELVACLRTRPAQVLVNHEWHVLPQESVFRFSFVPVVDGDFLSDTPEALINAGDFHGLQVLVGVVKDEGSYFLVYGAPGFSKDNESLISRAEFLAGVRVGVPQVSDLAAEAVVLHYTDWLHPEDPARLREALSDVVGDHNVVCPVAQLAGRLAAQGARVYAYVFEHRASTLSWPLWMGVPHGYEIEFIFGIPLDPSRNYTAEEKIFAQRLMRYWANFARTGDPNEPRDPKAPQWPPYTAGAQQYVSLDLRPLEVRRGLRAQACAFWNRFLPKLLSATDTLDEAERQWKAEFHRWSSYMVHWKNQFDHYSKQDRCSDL
structure (smiles),measurement,setting,value
CCC1(c2cccc(O)c2)CCCCN(C)C1 (stereo not shown) [meptazinol],IC50,[1],1500 nM
same,Cmax,[2],1.3 ± 0.3 ng/mL
same,AUC(0-t),[2]; [8],3.1 ± 0.7 ng·h/mL
same,Cmax,[3],4 ± 5.5 ng/mL
same,AUC(0-t),[3]; [8],5.4 ± 5.9 ng·h/mL
same,CL,[4]; [9],66.2 mL/min/kg and 73.2 mL/min/kg and 77.3 mL/min/kg and 70.3 mL/min/kg
same,Vss,[4]; [9],4.88 L and 4.11 L and 4.96 L
same,AUC,[4]; [9],252 ng·h/mL and 228 ng·h/mL and 215 ng·h/mL and 237 ng·h/mL
same,C0,[4]; [9],334 ng/mL and 226 ng/mL (2×) and 369 ng/mL
same,t½,[4]; [9],49.8 min and 40.8 min and 52.2 min
same,AUC,[4]; [10],47.7 ng·h/mL and 37.7 ng·h/mL and 38.2 ng·h/mL and 47.8 ng·h/mL
same,Cmax,[4]; [10],18.3 ng/mL and 19.8 ng/mL and 22.5 ng/mL and 19 ng/mL
same,T>50%Cmax,[4]; [10],0.9 h and 2.4 h and 1.7 h and 1.4 h and 2.3 h
same,Tmax,[4]; [10],120 min and 60 min
same,t½,[4]; [10],48 min and 54 min and 42 min
same,T>50%Cmax,[4]; [11],1.7 h
same,Fabs,[4]; [10],1.6% (3×) and 2.0% (2×)
same,Fabs,[4]; [11],1.8%
same,clearance,[4]; [12],73.7 mL/min/kg
same,Vd,[4]; [12],4.83 L
same,clearance,[4]; [13],72.2 mL/min/kg
same,Vd,[4]; [13],4.72 L
same,AUC,"[4]; monkey, plasma, iv, 1 mg/kg, iv meptazinol 1 mg free base equivalents/kg, individual animals, read-out: AUC",227 ng·h/mL
same,C0,"[4]; monkey, plasma, iv, 1 mg/kg, iv meptazinol 1 mg free base equivalents/kg, individual animals, read-out: C0",211 ng/mL
same,half-life,[4]; [12],48.6 min
same,AUC,"[4]; monkey, plasma, iv, 1 mg/kg, iv meptazinol 1 mg free base equivalents/kg, mean, read-out: AUC",232 ng·h/mL
same,C0,"[4]; monkey, plasma, iv, 1 mg/kg, iv meptazinol 1 mg free base equivalents/kg, mean, read-out: C0",273 ng/mL
same,half-life,[4]; [13],50.4 min
same,AUC,"[4]; monkey, plasma, po, 10 mg meptazinol free base equivalents/kg, oral meptazinol 10 mg free base equivalents/kg, individual animals, read-out: AUC",39.4 ng·h/mL
same,Cmax,"[4]; monkey, plasma, po, 10 mg meptazinol free base equivalents/kg, oral meptazinol 10 mg free base equivalents/kg, individual animals, read-out: Cmax",26.1 ng/mL
same,half-life,"[4]; monkey, plasma, po, 10 mg meptazinol free base equivalents/kg, oral meptazinol 10 mg free base equivalents/kg, individual animals",60 min
same,AUC,"[4]; monkey, plasma, po, 10 mg meptazinol free base equivalents/kg, oral meptazinol 10 mg free base equivalents/kg, mean, read-out: AUC",42.2 ng·h/mL
same,Cmax,"[4]; monkey, plasma, po, 10 mg meptazinol free base equivalents/kg, oral meptazinol 10 mg free base equivalents/kg, mean, read-out: Cmax",21.1 ng/mL
same,half-life,"[4]; monkey, plasma, po, 10 mg meptazinol free base equivalents/kg, oral meptazinol 10 mg free base equivalents/kg, mean",48 min
same,Tmax,"[4]; monkey, plasma, po, 10 mg meptazinol free base equivalents/kg, oral meptazinol 10 mg free base equivalents/kg, median value, read-out: Tmax",30 min
same,clearance,[5]; [14],67.3 mL/min/kg
same,Vd,[5]; [14],4.14 L
same,clearance,[5]; [15],62.7 mL/min/kg
same,Vd,[5]; [15],3.55 L
same,AUC,"[5]; dog, plasma, iv, 1 mg/kg, meptazinol in plasma, iv meptazinol 1 mg free base equivalents/kg, individual animals, read-out: AUC",247 ng·h/mL
same,AUC,"[5]; dog, plasma, iv, 1 mg/kg, meptazinol in plasma, iv meptazinol 1 mg free base equivalents/kg, mean, read-out: AUC",269 ng·h/mL
same,Cmax,"[5]; dog, plasma, po, 1 mg/kg, meptazinol in plasma, oral meptazinol 1 mg free base equivalents/kg, individual animals, read-out: Cmax",4.22 ng/mL
same,AUC,"[5]; dog, plasma, po, 1 mg/kg, meptazinol in plasma, oral meptazinol 1 mg free base equivalents/kg, mean, read-out: AUC",15.6 ng·h/mL
same,half-life,"[5]; dog, plasma, po, 1 mg/kg, meptazinol in plasma, oral meptazinol 1 mg free base equivalents/kg, mean, read-out: t½ (converted)",108 min
same,CL,[5]; [9],60.8 mL/min/kg and 57.2 mL/min/kg and 54.5 mL/min/kg and 73.3 mL/min/kg
same,Co,"[5]; meptazinol in plasma, iv meptazinol 1 mg free base equivalents/kg, individual animals",340 ng/mL and 308 ng/mL and 350 ng/mL and 402 ng/mL and 477 ng/mL
same,Co,"[5]; meptazinol in plasma, iv meptazinol 1 mg free base equivalents/kg, mean",375 ng/mL
same,AUC,[5]; [16],15.1 ng · h/mL and 15.8^b ng · h/mL and 23.3 ng · h/mL and 19.6^b ng · h/mL and 8.52 ng · h/mL
same,Cmax,[5]; [16],6.82 ng/mL and 6.79 ng/mL and 5.04 ng/mL and 3.52 ng/mL
same,T>50%Cmax,[5]; [16],2.5 h and 1.1 h and 1.9 h and 2.4 h and 1.8 h
same,Tmax,[5]; [16],0.5 h and 1 h (2×)
same,Cmax,[5]; [17],5.28 ng/mL
same,T>50%Cmax,[5]; [17],1.9 h
same,Fabs,"[5]; oral meptazinol 1 mg free base equivalents/kg, individual animals",6.1% and 5.8% and 8.0% and 6.4% and 3.8%
same,Fabs,"[5]; oral meptazinol 1 mg free base equivalents/kg, mean",6.0±2.1% and 6.0%
same,oral bioavailability,[6],< 10%
same,CL,[7]; [18],75.2 mL/min/kg and 88.3 mL/min/kg and 89.3 mL/min/kg and 92.2 mL/min/kg
same,Vss,[7]; [18],4.0 L and 5.4 L (2×) and 5.1 L
same,AUC,[7]; [19],222 ng·h/mL and 189 ng·h/mL and 187 ng·h/mL and 181 ng·h/mL
same,C0,[7]; [19],246 ng/mL and 259 ng/mL and 267 ng/mL and 244 ng/mL
same,t½,[7]; [19],36 min and 42 min
same,AUC*,"[7]; meptazinol in plasma, oral meptazinol 1 mg free base equivalents/kg, rats, calculated based on half-life from previous iv study, individual animals",3.1 ng·h/mL and 2.8 ng·h/mL and 4.9 ng·h/mL
same,Cmax,[7]; [20],1.12 ng/mL and 1.49 ng/mL and 1.44 ng/mL
same,t½*,[7]; [20],54 min
same,Fabs,"[7]; oral meptazinol 1 mg free base equivalents/kg, rats, individual animals",1.6% (2×) and 1.5% and 2.6%
same,Fabs,"[7]; oral meptazinol 1 mg free base equivalents/kg, rats, mean",1.8±0.5% and 1.8%
same,AUC,"[7]; rat, plasma, iv, 1 mg/kg, AUC, meptazinol in plasma, iv meptazinol 1 mg free base equivalents/kg, rats, individual animals",161 ng·h/mL
same,AUC,"[7]; rat, plasma, iv, 1 mg/kg, AUC, meptazinol in plasma, iv meptazinol 1 mg free base equivalents/kg, rats, mean",188 ng·h/mL
same,C0,"[7]; rat, plasma, iv, 1 mg/kg, C0, meptazinol in plasma, iv meptazinol 1 mg free base equivalents/kg, rats, individual animals",191 ng/mL
same,C0,"[7]; rat, plasma, iv, 1 mg/kg, C0, meptazinol in plasma, iv meptazinol 1 mg free base equivalents/kg, rats, mean",241 ng/mL
same,clearance,[7]; [21],104 mL/min/kg
same,clearance,[7]; [22],89.7 mL/min/kg
same,Vd,[7]; [21],6.8 L
same,Vd,[7]; [22],5.3 L
same,half-life,"[7]; rat, plasma, iv, 1 mg/kg, t½, meptazinol in plasma, iv meptazinol 1 mg free base equivalents/kg, rats, individual animals",48 min
same,half-life,"[7]; rat, plasma, iv, 1 mg/kg, t½, meptazinol in plasma, iv meptazinol 1 mg free base equivalents/kg, rats, mean",42 min
same,Tmax,"[7]; rat, plasma, po, 1 mg/kg",30 min
same,AUC,"[7]; rat, plasma, po, 1 mg/kg, AUC*, meptazinol in plasma, oral meptazinol 1 mg free base equivalents/kg, rats, calculated based on half-life from previous iv study, individual animals",2.9 ng·h/mL
same,AUC,"[7]; rat, plasma, po, 1 mg/kg, AUC*, meptazinol in plasma, oral meptazinol 1 mg free base equivalents/kg, rats, calculated based on half-life from previous iv study, mean",3.4 ng·h/mL
same,Cmax,"[7]; rat, plasma, po, 1 mg/kg, Cmax, meptazinol in plasma, oral meptazinol 1 mg free base equivalents/kg, rats, individual animals",1.93 ng/mL
same,Cmax,"[7]; rat, plasma, po, 1 mg/kg, Cmax, meptazinol in plasma, oral meptazinol 1 mg free base equivalents/kg, rats, mean",1.6 ng/mL
same,half-life,"[7]; rat, plasma, po, 1 mg/kg, t½*, meptazinol in plasma, oral meptazinol 1 mg free base equivalents/kg, rats, mean",78 min
